Values quoted from earlier work in PMC12128972, “TYRA-300, an FGFR3-selective inhibitor, promotes bone growth in two FGFR3-driven models of chondrodysplasia” (JCI Insight, 2025).

Experiments:
[1] = system: Fgfr3^Y367C/+ mouse model, which mimics the phenotype of ACH; parameters: method as in PMID 27064282, PMID 23200862; settings: infigratinib 2 mg/kg, starting at 7 days of age for 10 days; cited from earlier work
[2] = system: growth plate chondrocytes of Fgfr3^Y367C/+ mice; settings: previous studies; cited from earlier work
[3] = system: Fgfr3^G374R mouse model of ACH; settings: treatment initiated 1 day after birth; cited from earlier work
children with ACH = system: children with ACH; parameters: method as in earlier work; settings: children with ACH aged 5-12 years, once daily s.c.; 95% CI 1.22-1.97; cited from earlier work

Compound | bone growth compared with vosoritide (800 μg/kg) [1] | type X collagen staining in the HZCs [2] | premature fusion of the intersphenoidal synchondrosis [3] | increase from baseline of average linear growth velocity greater than placebo (children with ACH) [cm/year]
CCN1CCN(c2ccc(Nc3cc(N(C)C(=O)Nc4c(Cl)c(OC)cc(OC)c4Cl)ncn3)cc2)CC1 [infigratinib] | more bone growth than vosoritide | partial restoration | did not rescue premature fusion | 
vosoritide: C-natriuretic peptide (CNP) analog that is a once daily subcutaneous injection (PGQEHPNARKYKGANKKGLSKGCFGLKLDRIGSMSGLGC; chains of the INN, looked up) |  | partial restoration |  | 1.57
